One assay deals with S. aureus 29213. The assay can be described thus: Resistance development, 30 serial passages at sub-MIC. The format is cell-based. The following applies: after 30 days / 30 serial passages. The protocol: (§1) Sub-inhibitory concentrations of RP557, gentamicin and clindamycin were incubated with P. aeruginosa 27853 and S. aureus 29213 for 24 hours. Bacteria showing growth in the highest concentration were re-passaged in fresh dilutions containing sub-minimum inhibitory concentration (MIC) levels of each component for 30 consecutive passages.
(§2) FIG. 4A to 4B. […] Sub-inhibitory concentrations of RP557, gentamicin and clindamycin were incubated with P. aeruginosa 27853 and S. aureus 29213 for 24 hours. Bacteria showing growth in the highest concentration were re-passaged in fresh dilutions containing sub-minimum inhibitory concentration (MIC) levels of each component for 30 consecutive passages; means are shown.

In another assay the test system is C. albicans (ATCC 44858). The assay can be described thus: Rodent model of vulvovaginal candidiasis. The format is in vivo. The following applies: rat, oral fluconazole. The protocol:
FIG. 8A to 8B indicates topical treatment of exemplary peptide RP557 reduces rodent vaginal candidiasis. Effects of RP557, miconazole and oral fluconazole in a C. albicans vaginal infection rodent model. On Day 0, rats were inoculated intravaginally with C. albicans. RP557 and miconazole were administered twice daily (FIG. 8A). A separate group received oral fluconazole (FIG. 8B). Further details are provided in the experimental section.
RP557 was effective in eradicating C. albicans in a rodent model of vulvovaginal candidiasis (FIG. 8A-8B).
FIG. 8A to 8B. RP557 topical treatment reduces rodent vaginal candidiasis. Effects of RP557, miconazole and oral fluconazole in the C. albicans (ATCC 44858) vaginal infection rodent model. On Day 0, rats were inoculated intravaginally (IVG) with C. albicans at 1.46×10^7 CFU/rat. RP557 and miconazole at 20 mg/mL were administered IVG at 0.1 mL/rat twice daily at 8 hr intervals starting from 48 hr after infection for 3 days. CPUs were evaluated on Day 5 with limit of detection (LOD) 0.7 CFU/rat. Significant difference, compared to vehicle, determined by one-way ANOVA followed by Dunnett's test (*p<0.05, ****p<0.0001). A separate group receiving oral fluconazole; *p<0.05 versus 0.1 and 10 mg/kg fluconazole.

The subject of the next assay is P. aeruginosa 27853. The assay can be described thus: Resistance development, 30 serial passages at sub-MIC. The format is cell-based. The conditions noted are these: after 30 days / 30 serial passages. The protocol:
as §1, §2

For `CCC[C@@H]1C[C@@H](C(=O)N[C@@H]([C@H]2O[C@H](SC)[C@H](O)[C@@H](O)[C@H]2O)[C@H](C)Cl)N(C)C1` [clindamycin], the “growth at multiple of the MIC after 30 days” value in the assay on S. aureus 29213 is on record as 256 times the minimum inhibitory concentration (MIC). As for `OC(Cn1cncn1)(Cn1cncn1)c1ccc(F)cc1F` [fluconazole], in the assay with C. albicans (ATCC 44858), the “activity on fungal counts” value is reported as “minimal activity”. In the case of gentamicin, the “growth at multiple of the MIC after 30 days” value in the assay with P. aeruginosa 27853 is 4096 times the minimum inhibitory concentration (MIC).

These data come from patent US11266712B2, “Antimicrobial peptides and methods of using the same” (Riptide Bioscience, Inc., priority 2018, dated 2022).
